In patent US20250326748A1, “COMPOUNDS AND METHODS FOR MODULATING SPLICING” (REMIX THERAPEUTICS INC., priority 2022, published 2025):
Read-outs that look alike come from different tables or passages of the source.

Key:
Assay type in all cases: cell-based, human
HTT mRNA = assay: Splicing RT-qPCR assay, HTT canonical (CJ) and alternative (AJ) junction mRNA; conditions: Homo sapiens; for IC50: canonical junction mRNA; for AC50: alternative junction mRNA, read-out: HTT AJ (AC50, increase in AJ mRNA)
Summary of the method: (§1)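 A673 cells (DMEM, 10% FBS) or K562 cells (IMDM, 10% FBS) were treated for 24 h at 37° C with an 11-point 3-fold dilution series, top dose 10 uM, DMSO ≤0.25%. Canonical and alternative junction mRNA was measured in lysates by one-step RT-qPCR. Normalization used PPIA for A673 and GAPDH or GUSB for K562.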

MYB mRNA = assay: Splicing RT-qPCR assay, MYB canonical (CJ) and alternative (AJ) junction mRNA; conditions: Homo sapiens; for IC50: canonical junction mRNA; for AC50: alternative junction mRNA, read-out: MYB AJ (AC50, increase in AJ mRNA)
Summary of the method: as §1

Target C mRNA = assay: Splicing RT-qPCR panel, Target C canonical junction (CJ) mRNA; conditions: read-out: Target C CJ (decrease in CJ mRNA levels, IC50)
Summary of the method: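 A673 cells (DMEM, 10% FBS) or K562 cells (IMDM, 10% FBS) treated 24 h at 37 °C with an 11-point 3-fold dilution, top 10 uM, DMSO ≤0.25%. Canonical-junction mRNA quantified in lysates by RT-qPCR, normalised to GAPDH, GUSB or PPIA and to DMSO (2^−ΔΔCt), then converted to % response.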

[1] = 24 h, RT-qPCR, A673 or K562 cells, 24 hours treatment, read-out: HTT CJ (IC50, decrease in CJ mRNA)
[2] = qPCR panel, read-out: HTT CJ (decrease in CJ mRNA levels, IC50)
[3] = RT-qPCR, A673 or K562 cells, 24 hours treatment
[4] = qPCR panel, read-out: MYB CJ (decrease in CJ mRNA levels, IC50)
[5] = RT-qPCR, A673 or K562 cells, 24 hours treatment, read-out: MYB CJ (IC50, decrease in CJ mRNA)

SMILES	IC50 (HTT mRNA; [1]) [nM]	IC50 (HTT mRNA; [2]) [nM]	AC50 (HTT mRNA; [3]) [nM]	IC50 (MYB mRNA; [4]) [nM]	AC50 (MYB mRNA; [3]) [nM]	IC50 (MYB mRNA; [5]) [nM]	IC50 (Target C mRNA; Homo sapiens) [nM]	IC50 (Target C mRNA) [nM]
Cc1c(O)c(-c2ccc3c(C(F)(F)F)c(N4CCNCC4)cnc3n2)cc2cn(C)nc12 [Compound 302, 2,7-dimethyl-5-[6-(piperazin-1-yl)-5-(trifluoromethyl)-1,8-naphthyridin-2-yl]indazol-6-ol]	1000 to 10000	1000 to 10000	> 10000	100 to 1000	100 to 1000	100 to 1000	> 10000	
C[C@@H]1CN(c2cnc3nc(-c4cc(C#N)c5nn(C)cc5c4)cc(Cl)c3c2)C[C@H](C)N1 [Compound 325, 5-(4-chloro-6-((3R,5S)-3,5-dimethylpiperazin-1-yl)-1,8-naphthyridin-2-yl)-2-methyl-2H-indazole-7-carbonitrile 2,2,2-trifluoroacetate]	> 10000	> 10000	> 10000	100 to 1000	1000 to 10000	100 to 1000	> 10000	
CN[C@@H]1CN(c2cnc3nc(-c4cc5cn(C)nc5c(C)c4O)ccc3c2)C[C@H]1C [Compound 126, 2,7-dimethyl-5-{6-[(3R,4S)-3-methyl-4-(methylamino)382pyrrolidine-1-yl]-1,8-naphthyridin-2-yl}indazol-6-ol]	100 to 1000	100 to 1000	1000 to 10000	100 to 1000	100 to 1000	100 to 1000	1000 to 10000	
Cc1cn2nc(-c3ccc4c(Cl)c(N5C[C@H](C)N[C@@H](C)C5)cnc4n3)cc(C)c2n1 [Compound 393, 5-chloro-2-{2,8-dimethylimidazo[1,2-b]pyridazin-6-yl}-6-[(3S,5S)-3,5-dimethylpiperazin-1-yl]-1,8-naphthyridine]	100 to 1000	100 to 1000	100 to 1000	< 100	< 100	< 100	1000 to 10000	
Cc1cn2cc(-c3cc(Cl)c4cc(N5C[C@@H](C)N[C@@H](C)C5)cnc4n3)cc(F)c2n1 [Compound 297]	1000 to 10000	1000 to 10000	1000 to 10000	100 to 1000	100 to 1000	100 to 1000	> 10000	
CN[C@H]1CN(c2cnc3nc(-c4cc5cn(C)nc5c(C)c4O)ccc3c2)C[C@@H]1F (single isomer, unassigned) [Compound 131]	1000 to 10000	1000 to 10000	1000 to 10000	100 to 1000	100 to 1000	100 to 1000	1000 to 10000	
CN[C@H]1CN(c2cnc3nc(-c4cc5cn(C)nc5c(C)c4O)ccc3c2)C[C@H]1C [Compound 125, 2,7-dimethyl-5-{6-[(3R,4R)-3-methyl-4-(methylamino)379pyrrolidine-1-yl]-1,8-naphthyridin-2-yl}indazol-6-ol]	100 to 1000	100 to 1000	100 to 1000	< 100	< 100	< 100	100 to 1000	
Cc1c(O)c(-c2cc(Cl)c3cc(N4C[C@@H](C)N[C@@H](C)C4)cnc3n2)cc2cn(C)nc12 [Compound 149]	100 to 1000	100 to 1000	100 to 1000	< 100	< 100	< 100		1000 to 10000
CCN[C@@H]1CCN(c2cnc3nc(-c4cc5cn(C)nc5c(C)c4O)ccc3c2)C1 [Compound 124]	< 100	< 100	< 100	< 100	< 100	< 100	100 to 1000	
Cc1cn2nc(-c3cc(Cl)c4cc(N5CCC(N6CCC6)CC5)cnc4n3)cc(C)c2n1 [Compound 349]	100 to 1000	100 to 1000	100 to 1000	100 to 1000	100 to 1000	100 to 1000	100 to 1000	
CCN[C@H]1CCN(c2cnc3nc(-c4cc5cn(C)nc5cc4O)cc(Cl)c3c2)C1 [Compound 318]	100 to 1000	100 to 1000	1000 to 10000	< 100	< 100	< 100	1000 to 10000	
C[C@@H]1CN(c2cnc3nc(-c4cc5cn(C)nc5c(F)c4O)cc(C4CC4)c3c2)C[C@H](C)N1 [Compound 305, 5-{4-cyclopropyl-6-[(3R,5S)-3,5-dimethylpiperazin-1-yl]-1,8-naphthyridin-2-yl}-7-fluoro-2-methylindazol-6-ol]	1000 to 10000	1000 to 10000	1000 to 10000	100 to 1000	100 to 1000	100 to 1000	> 10000	
Cc1c(O)c(-c2ccc3cc(N4CCC(N(C)C)CC4)cnc3n2)cc2cn(C)nc12 [Compound 138, 5-{6-[4-(dimethylamino)piperidin-1-yl]-1,8-naphthyridin-2-yl}-2,7-dimethylindazol-6-ol]	100 to 1000	100 to 1000	1000 to 10000	100 to 1000	100 to 1000	100 to 1000	1000 to 10000	
Cn1cc2cc(-c3cc(Cl)c4cc(N5CCNC6(CC6)C5)cnc4n3)c(O)c(F)c2n1 [Compound 274]	100 to 1000	100 to 1000	100 to 1000	< 100	< 100	< 100	1000 to 10000	
Cn1cc2cc(-c3ccc4cc(N5CC[C@H](NCC6CC6)C5)cnc4n3)c(O)cc2n1 [Compound 314]	100 to 1000	100 to 1000	100 to 1000	100 to 1000	100 to 1000	100 to 1000	1000 to 10000	
C[C@@H]1CN(c2cnc3nc(-c4cc5cn(C)nc5c(F)c4O)cc(Cl)c3c2)C[C@@H](C)N1 [Compound 281]	< 100	< 100	100 to 1000	< 100	< 100	< 100	100 to 1000	
Cc1cc(-c2cc3cn(C)nc3c(C)c2O)nc2ncc(N3CCNCC3)cc12 [Compound 151, 2,7-dimethyl-5-[4-methyl-6-(piperazin-1-yl)-1,8-naphthyridin-2-yl]indazol-6-ol]	100 to 1000	100 to 1000	100 to 1000	< 100	< 100	< 100	1000 to 10000	
Cc1c(O)c(-c2ccc3c(Cl)c(N4CCNCC4)cnc3n2)cc2cn(C)nc12 [Compound 278, 5-[5-chloro-6-(piperazin-1-yl)-1,8-naphthyridin-2-yl]-2,7-dimethylindazol-6-ol]	1000 to 10000	1000 to 10000	1000 to 10000	< 100	< 100	< 100	1000 to 10000	
CNC(=O)c1cc(-c2cc3cn(C)nc3c(C)c2O)nc2ncc(N3CCNCC3)cc12 [Compound 150, 2-(6-hydroxy-2,7-dimethylindazol-5-yl)-N-methyl-6-(piperazin-1-yl)-1,8-naphthyridine-4-carboxamide]	> 10000	> 10000	> 10000	> 10000	> 10000	> 10000	> 10000	
CN[C@H]1CN(c2cnc3nc(-c4cc5cn(C)nc5c(C)c4O)ccc3c2)C[C@@H]1C [Compound 127, 2,7-dimethyl-5-{6-[(3S,4R)-3-methyl-4-(methylamino)384pyrrolidine-1-yl]-1,8-naphthyridin-2-yl}indazol-6-ol]	100 to 1000	100 to 1000	100 to 1000	< 100	100 to 1000	< 100	100 to 1000	
Cc1c(O)c(-c2cc(Cl)c3cc(N4CCC(N(C)C)C4)cnc3n2)cc2cn(C)nc12 (stereo not drawn) [Compound 143, 5-{4-chloro-6-[3-(dimethylamino)357pyrrolidine-1-yl]-1,8-naphthyridin-2-yl}-2,7-dimethylindazol-6-ol]	100 to 1000	100 to 1000	100 to 1000	< 100	< 100	< 100	100 to 1000	
Cc1c(O)c(-c2cc(Cl)c3cc(N4CCNC(C)C4)cnc3n2)cc2cn(C)nc12 (stereo not drawn) [Compound 147]	100 to 1000	100 to 1000	100 to 1000	100 to 1000	100 to 1000	100 to 1000	1000 to 10000	
Cc1cn2nc(-c3ccc4cc(N5C[C@@H](C)N[C@@H](C)C5)cnc4n3)cc(C)c2n1 [Compound 330]	100 to 1000	100 to 1000	100 to 1000	100 to 1000	100 to 1000	100 to 1000	100 to 1000	
Cc1cn2cc(-c3cc(Cl)c4cc(N5C[C@H](C)N[C@@H](C)C5)cnc4n3)cc(F)c2n1 [Compound 298]	100 to 1000	100 to 1000	100 to 1000	< 100	< 100	< 100	1000 to 10000	
